“Also recorded” adds a separate entry of the source.
Experiments:
Assay type in all cases: in vivo, human
[1] = system: patients with autoimmune diseases (psoriasis, rheumatoid arthritis, systemic scleroderma); assay: Cytokine and CRP levels in patients with autoimmune diseases after single administration; details: for Interleukin 1 beta level: T0 = 1; for Interleukin 13 level: T0 = 4; for Interleukin 6 level: T0 = 4.6; for Interleukin 7 level: T0 = 7; for CRP level: T0 = 32; for Interleukin 12 level / Interleukin 17 (25) level: T0 = 40; for Interleukin 9 level: T0 = 50; for TNF alpha level: T0 = 60
Experimental: A similar approach was used in a limited group of patients with autoimmune diseases. 10 patients (5 with psoriasis, 3 with rheumatoid arthritis, 2 with systemic scleroderma) were administered once the composition of the invention and a sample of blood was taken at T1 (8 days), T2 (30 days) and T3 (60 days). Cytokine and CRP (C-Reactive Protein, an index of inflammation) levels were measured by SCREEN CRP TEST and compared to those at time 0 (before the treatment).

[2] = system: healthy volunteer subjects; assay: Serum measurement of cytokines, chemokines and growth factors (Bio-Plex) after treatment
Experimental: (§1) The recruited patients had already been subjected to one or more polidocanol treatments, but had undergone a wash-out period of at least 4 months.
Blood was then drawn at about 30′-1 hour (T1h), 1 day (T1), 7 days (T7) and 30 days (T30) after treatment, measuring the following serum parameters: • a) “Pro-inflammatory” cytokines: IL-1β, IL-6, IL-7, IL-12 (p70), IL-17, IFN-γ, TNF-α; • b) “Anti-inflammatory” cytokines: IL-1ra, IL-4, IL-5, IL-9, IL-13; • c) Chemokines: IL-8/CXCL8, IP-10/CXCL10, MIP-1α/CCL3, MIP-1β, RANTES/CCL5, Eotaxin/CCL11; • d) Growth factors: b-FGF, PDGF-bb, VEGF, G-CSF.
In a limited number of patients measurements 30 minutes and 3 hours after the treatment were carried out in order to identify short-term responses and assess possible acute inflammation indicators.
(§2) Determinations a)-d) were carried out with Multiple Immunomagnetic Assay (Bio-Plex, Bio-Rad). Ig determinations were carried out with commercially available kits.
The determinations carried out were statistically analysed with the Friedman test and Dunns Multiple Comparison test. The most significant results are depicted in FIG. 1.

[3] = system: patients suffering from venous insufficiency from minor to severe; assay: QoL survey (CIVIQ-20) after 3 or 4 treatments with diluted polidocanol
Experimental: A commercially available polidocanol solution (Atossisclerol®) was diluted to 0.05% with a physiological saline solution. A 1.4% sodium bicarbonate solution was then added in order to obtain a final concentration of 0.06%. The patients, 80% of which were female between 18 and 82 years of age suffering from venous insufficiency from minor to severe, were subjected to treatment after obtaining their free and informed consent.
Before the treatment, about 100 patients were subjected to a survey in order to assess their quality of life and to evaluate possible variations of the phlogistic/inflammatory overall state, of the venous microcirculation and circulation functionality, and also, more in general, of the skin trophism.
The long term systemic effects were evaluated via a survey given to patients after 3 or 4 treatments with diluted polidocanol.
In particular, they were asked to fill out a survey (CIVIQ-20) according to the criteria defined in Launois R. et al “Construction and validation of a quality of life questionnaire in chronic lower limb venous insufficiency (CIVIQ), Qual. Life Res., 1996, 5(6):539-554.
The survey contained the questions summarized hereinbelow, with answers indexed with values from 0 to 4 (0 if the feeling of discomfort described by the question was not applicable and from 1 to 4 if it was applicable with increasing intensity). Hereinbelow are collected the activities which turned out to be improved after the treatment: • 1) During the last 4 weeks have you felt pain in the hips or legs and with what intensity? In 14% of cases a decrease in hip pain was observed after treatment with polidocanol according to the invention. • 2) During the last 4 weeks have you had troubles in the routine work activities, due to troubles with the lower limbs? In 75% cases the patients could note a better condition during routine work activity • 3) During the last 4 weeks have you had troubles sleeping due to troubles with your legs? With what frequency? 37% better sleeping conditions. No troubles. • 4) During the last 4 weeks have you had troubles in the following activities due to troubles with your legs? • a. Remaining standing for a long time. Improves in 87% • b. Climbing several flights of stairs. • c. Crouching kneeling down. Improves • d. Walking at a brisk pace. • e. Traveling by car, bus, plane. Improves in 85% • f. Performing housekeeping tasks (ironing, walking around in the kitchen, etc.). Improves in 85% • g. Going out at night. Improves in 85% • h. Playing sports • 5) Given that troubles with the legs can also affect moods, it was asked if during the last 4 weeks they had noticed troubles such as: • a. Nervousness • b. Quick fatigue • c. Feeling of oppression • d. Excessive caution • e. Embarrassment in showing off the legs. Improves in 90% • f. Irritability • g. Feeling of being handicapped • h. Morning fatigue. Improves in 95% • i. Not feeling like going out. Improves in 75%.

[4] = system: healthy volunteer subjects; assay: Serum immunoglobulin and light chain levels after treatment
Experimental: as §1
Levels of IgM, IgG, IgA and of light chains kappa/lambda, kappa and lambda were also measured.
as §2

[5] = 7 days post treatment (T7) vs basal

Polidocanol [diluted polidocanol]
Interleukin 1 beta level ([1]; T1 (8 days) after single administration, average, 10 patients): 1.5 | Interleukin 13 level ([1]; T1 (8 days)): 5 | Interleukin 6 level ([1]; T1 (8 days)): 4.8 | Interleukin 7 level ([1]; T1 (8 days)): 9 | CRP level ([1]; T1 (8 days)): 30 | Interleukin 12 level ([1]; T1 (8 days)): 42 | Interleukin 17 (25) level ([1]; T1 (8 days)): 45 | Interleukin 9 level ([1]; T1 (8 days)): 80 | TNF alpha level ([1]; T1 (8 days)): 52 | Interleukin 1 beta level ([1]; T2 (30 days)): 1.7 | Interleukin 13 level ([1]; T2 (30 days)): 5 | Interleukin 6 level ([1]; T2 (30 days)): 3.7 | Interleukin 7 level ([1]; T2 (30 days)): 3 | CRP level ([1]; T2 (30 days)): 24 | Interleukin 12 level ([1]; T2 (30 days)): 36 | Interleukin 17 (25) level ([1]; T2 (30 days)): 32 | Interleukin 9 level ([1]; T2 (30 days)): 100 | TNF alpha level ([1]; T2 (30 days)): 42 | Interleukin 1 beta level ([1]; T3 (60 days)): 1.2 | Interleukin 13 level ([1]; T3 (60 days)): 4 | Interleukin 6 level ([1]; T3 (60 days)): 3.2 | Interleukin 7 level ([1]; T3 (60 days)): 3 | CRP level ([1]; T3 (60 days)): 16 | Interleukin 12 level ([1]; T3 (60 days)): 32 | Interleukin 17 (25) level ([1]; T3 (60 days)): 28 | Interleukin 9 level ([1]; T3 (60 days)): 120 | TNF alpha level ([1]; T3 (60 days)): 48 | IL-8 level ([2]; 7-30 days): increases | IL-1ra serum level [2, 5]: increase significantly; also recorded: significantly increased serum levels | IL-1β serum level [2, 5]: increase significantly; also recorded: significantly increased serum levels | IL-12 (p70) serum level [2, 5]: increase significantly; also recorded: significantly increased serum levels | MIP-1β/CCL4 serum level [2, 5]: modest variation (increase); also recorded: significantly increased serum levels | VEGF serum level [2, 5]: Increase; also recorded: significantly increased serum levels | IL-7 serum level ([2]; 30 days (T30) vs T0, p<0.01): decreases in a statistically significant way; also recorded: decreases significantly; also recorded: decrease | IL-12 serum level ([2]; 30 days (T30) vs T0, p<0.05): increases significantly; also recorded: increase | IL-1ra serum level ([2]; 30 days (T30), p<0.05): increase | IL-1β serum level ([2]; 30 days (T30), p<0.05): increase | VEGF serum level ([2]; 30 days (T30), p<0.05): higher levels; also recorded: increase | serum parameters, not-treated (T0) vs 1 day after treatment (T1) ([2]; T1, acute inflammatory reaction): None of the analysed parameters showed statistically significant differences | PDGFbb level ([2]; after treatment): increasing | b-FGF level ([2]; after treatment): increasing | most of the serum parameters (except for IP-10/CXCL10) compared with T0 ([2]; first hour after treatment (T30-45 min)): increased | IL-2, IL-10, IL-15, GM-CSF and MCP-1/CCL2 serum levels ([2]; in vivo): below the detection limits | MIP-1α level ([2]; with respect to basal levels, within the 1st and 7th days): modest variation (increase) | cases with decrease in hip pain ([3]; CIVIQ-20 question 1, after 3 or 4 treatments): 14% | cases with better condition during routine work activity ([3]; CIVIQ-20 question 2): 75% | better sleeping conditions ([3]; CIVIQ-20 question 3): 37% | Remaining standing for a long time, improves ([3]; CIVIQ-20 question 4a): 87% | Crouching kneeling down ([3]; CIVIQ-20 question 4c): Improves | Traveling by car, bus, plane, improves ([3]; CIVIQ-20 question 4e): 85% | Performing housekeeping tasks, improves ([3]; CIVIQ-20 question 4f): 85% | Going out at night, improves ([3]; CIVIQ-20 question 4g): 85% | Embarrassment in showing off the legs, improves ([3]; CIVIQ-20 question 5e): 90% | Not feeling like going out, improves ([3]; CIVIQ-20 question 5i): 75% | Morning fatigue, improves ([3]; CIVIQ-20 question 5h): 95% | cases with improved quality of life overall ([3]; answers after vs before treatment): 87% | IgA level ([4]; T30 with respect to T7 and T0): decrease | IgG level ([4]; T30 with respect to T7 and T0): decrease | IgM level ([4]; T30 with respect to T7 and T0): decrease | light chains levels ([4]; T30 with respect to T7 and T0): decrease | immunogenic effect (IgM and IgG levels) ([4]; after 7 and 30 days, at the tested concentrations): absence of an immunogenic effect | tested Ig levels ([4]; between T0 and T7): none of the tested Ig fluctuates
